Earlier results, collected in patent US7517545B2, “Reduced-calorie fats containing behenic acid and process of making thereof” (Council of Scientific & Industrial Research, priority 1997, dated 2009).

Conditions: feed study on rats

absorption of the structured triglycerides vs other oils: significantly lower
excretion into feces vs other oils: higher than other oils
Compound: CCCCCCCCCCCCCCCCCCCCCCOC(COC(=O)CCCCC)COC(=O)CCCCC [2-behenyl-1,3-dicaproyl glycerol]
